Laboratory results published in patent US6479435B1, “Diaryl ethers and processes for their preparation and herbicidal and desiccant compositions containing them” (ISK Americas Incorporated, priority 1997, dated 2002).

What was measured:
Type in all cases: in vivo
[1] = test system: common ragweed (Ambrosia artemisiifolia L., AMBEL); assay: Post-emerge greenhouse herbicide test, phytotoxicity rating; conditions: 14 days after application, scale 0-100
Outline: (§1)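 Plants at the 2-3 leaf stage, sown 8-21 days earlier, were track-sprayed post-emergence with compound in acetone plus 0.25% v/v non-ionic surfactant at 63-1000 g ai/ha (187 l/ha). Damage was rated at 14 days on a 0-100 scale (0 none, 100 all plants dead), for both crop injury and weed control.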

[2] = test system: ivyleaf morningglory (Ipomoea hederacea, IPOHE); assay: as above; conditions: 14 days after application, scale 0-100
Outline: as §1

[3] = test system: velvetleaf (Abutilon theophrasti, ABUTH); assay: as above; conditions: 14 days after application, scale 0-100
Outline: as §1

[4] = test system: barnyardgrass (Echinochloa crusgalli, ECHCG); assay: as above; conditions: 14 days after application, scale 0-100
Outline: as §1

[5] = test system: lambsquarters (Chenopodium album, CHEAL); assay: as above; conditions: 14 days after application, scale 0-100
Outline: as §1

[6] = test system: green foxtail (Setaria viridis, SETVI); assay: as above; conditions: 14 days after application, scale 0-100
Outline: as §1

[7] = test system: sicklepod (Cassia obtusifolia, CASOB); assay: as above; conditions: 14 days after application, scale 0-100
Outline: as §1

[8] = test system: large crabgrass (Digitaria sanguinalis, DIGSA); assay: as above; conditions: 14 days after application, scale 0-100
Outline: as §1

[9] = test system: Johnsongrass (Sorghum halepense, SORHA); assay: as above; conditions: 14 days after application, scale 0-100
Outline: as §1

[10] = test system: redroot pigweed (Amaranthus retroflexus, AMARE); assay: as above; conditions: 14 days after application, scale 0-100
Outline: as §1

[11] = test system: soybean (Glycine max L., var. Pella 86, SOY); assay: Pre-emerge greenhouse test, crop damage rating; set-up: key to SOY crop damage rating: 0 = no damage, 100 = complete death of all plants; conditions: 14 days after application, rating scale 0-100
Outline: (§2)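 Seeds sown in sandy loam one day before track-sprayer application of acetone solutions at 125–1000 g ai/ha (187 l/ha), then surface-watered to incorporate and bottom-watered. Injury scored visually at 14 days on a 0–100 scale (0 no damage, 100 complete death).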

[12] = test system: upland rice (Oryza sp., var.Tebonnet, RICE); assay: Post-emerge greenhouse test, crop damage rating; conditions: 14 days after application, scale 0-100
Outline: as §1

[13] = test system: field corn (Zea mays L., var. Dekalb 535, CORN); assay: Post-emerge greenhouse test, crop damage rating; conditions: 14 days after application, scale 0-100
Outline: as §1

[14] = test system: soybean (Glycine max L., var. Pella 86, SOY); assay: Post-emerge greenhouse test, crop damage rating; set-up: key to crop damage rating SOY: 0-100 scale: 0 = no damage, 100 = complete death of all plants; conditions: 14 days after application, scale 0-100
Outline: as §1

[15] = test system: upland rice (Oryza sp., var.Tebonnet, RICE); assay: Pre-emerge greenhouse test, crop damage rating; conditions: 14 days after application, rating scale 0-100
Outline: as §2

[16] = test system: field corn (Zea mays L., var. Dekalb 535, CORN); assay: Pre-emerge greenhouse test, crop damage rating; conditions: 14 days after application, rating scale 0-100
Outline: as §2

[17] = test system: ivyleaf morningglory (Ipomoea hederacea, IPOHE); assay: Pre-emerge greenhouse herbicide test, phytotoxicity rating; conditions: 14 days after application, rating scale 0-100
Outline: as §2

[18] = test system: velvetleaf (Abutilon theophrasti, ABUTH); assay: as above; conditions: 14 days after application, rating scale 0-100
Outline: as §2

[19] = test system: barnyardgrass (Echinochloa crusgalli, ECHCG); assay: as above; conditions: 14 days after application, rating scale 0-100
Outline: as §2

[20] = test system: lambsquarters (Chenopodium album, CHEAL); assay: as above; conditions: 14 days after application, rating scale 0-100
Outline: as §2

[21] = test system: common ragweed (Ambrosia artemisiifolia L., AMBEL); assay: as above; conditions: 14 days after application, rating scale 0-100
Outline: as §2

[22] = test system: green foxtail (Setaria viridis, SETVI); assay: as above; conditions: 14 days after application, rating scale 0-100
Outline: as §2

[23] = test system: sicklepod (Cassia obtusifolia, CASOB); assay: as above; conditions: 14 days after application, rating scale 0-100
Outline: as §2

[24] = test system: large crabgrass (Digitaria sanguinalis, DIGSA); assay: as above; conditions: 14 days after application, rating scale 0-100
Outline: as §2

[25] = test system: Johnsongrass (Sorghum halepense, SORHA); assay: as above; conditions: 14 days after application, rating scale 0-100
Outline: as §2

[26] = test system: redroot pigweed (Amaranthus retroflexus, AMARE); assay: as above; conditions: 14 days after application, rating scale 0-100
Outline: as §2

COc1cc(Oc2cc(-n3c(=O)n4n(c3=S)CCCC4)c(F)cc2Cl)nc(OC)n1 [Compound 8-32]
phytotoxicity rating AMBEL ([1]; rate 63 g ai/ha): 50
phytotoxicity rating AMBEL ([1]; rate 500 g ai/ha): 90
phytotoxicity rating IPOHE ([2]; rate 63 g ai/ha): 100
phytotoxicity rating IPOHE ([2]; rate 500 g ai/ha): 100
phytotoxicity rating ABUTH ([3]; rate 63 g ai/ha): 100
phytotoxicity rating ABUTH ([3]; rate 500 g ai/ha): 100
phytotoxicity rating ECHCG ([4]; rate 63 g ai/ha): 0
phytotoxicity rating ECHCG ([4]; rate 500 g ai/ha): 10
phytotoxicity rating CHEAL ([5]; rate 63 g ai/ha): 95
phytotoxicity rating CHEAL ([5]; rate 500 g ai/ha): 100
phytotoxicity rating SETVI ([6]; rate 63 g ai/ha): 10
phytotoxicity rating SETVI ([6]; rate 500 g ai/ha): 40
phytotoxicity rating CASOB ([7]; rate 63 g ai/ha): 10
phytotoxicity rating CASOB ([7]; rate 500 g ai/ha): 100
phytotoxicity rating DIGSA ([8]; rate 63 g ai/ha): 0
phytotoxicity rating DIGSA ([8]; rate 500 g ai/ha): 0
phytotoxicity rating SORHA ([9]; rate 63 g ai/ha): 0
phytotoxicity rating SORHA ([9]; rate 500 g ai/ha): 20
phytotoxicity rating AMARE ([10]; rate 63 g ai/ha): 90
phytotoxicity rating AMARE ([10]; rate 500 g ai/ha): 100
SOY crop damage rating ([11]; Rate 125 g al/ha): 0
SOY crop damage rating ([11]; Rate 500 g al/ha): 0
crop damage rating RICE ([12]; rate 63 g ai/ha): 0
crop damage rating RICE ([12]; rate 500 g ai/ha): 10
crop damage rating CORN ([13]; rate 63 g ai/ha): 5
crop damage rating CORN ([13]; rate 500 g ai/ha): 5
crop damage rating SOY ([14]; rate 63 g ai/ha): 30
crop damage rating SOY ([14]; rate 500 g ai/ha): 80
RICE crop damage rating ([15]; Rate 125 g al/ha): 0
RICE crop damage rating ([15]; Rate 500 g al/ha): 40
CORN crop damage rating ([16]; Rate 125 g al/ha): 0
CORN crop damage rating ([16]; Rate 500 g al/ha): 10
IPOHE phytotoxicity rating ([17]; Rate 125 g al/ha): 40
IPOHE phytotoxicity rating ([17]; Rate 500 g al/ha): 90
ABUTH phytotoxicity rating ([18]; Rate 125 g al/ha): 95
ABUTH phytotoxicity rating ([18]; Rate 500 g al/ha): 100
ECHCG phytotoxicity rating ([19]; Rate 125 g al/ha): 0
ECHCG phytotoxicity rating ([19]; Rate 500 g al/ha): 20
CHEAL phytotoxicity rating ([20]; Rate 125 g al/ha): 90
CHEAL phytotoxicity rating ([20]; Rate 500 g al/ha): 100
AMBEL phytotoxicity rating ([21]; Rate 125 g al/ha): 0
AMBEL phytotoxicity rating ([21]; Rate 500 g al/ha): 50
SETVI phytotoxicity rating ([22]; Rate 125 g al/ha): 10
SETVI phytotoxicity rating ([22]; Rate 500 g al/ha): 100
CASOB phytotoxicity rating ([23]; Rate 125 g al/ha): 30
CASOB phytotoxicity rating ([23]; Rate 500 g al/ha): 80
DIGSA phytotoxicity rating ([24]; Rate 125 g al/ha): 20
DIGSA phytotoxicity rating ([24]; Rate 500 g al/ha): 90
SORHA phytotoxicity rating ([25]; Rate 125 g al/ha): 10
SORHA phytotoxicity rating ([25]; Rate 500 g al/ha): 30
AMARE phytotoxicity rating ([26]; Rate 125 g al/ha): 50
AMARE phytotoxicity rating ([26]; Rate 500 g al/ha): 100

COc1cc(OC)nc(Oc2cc(-n3c(=O)n4n(c3=S)CCCC4)c(F)cc2Cl)n1 [Compound 8-33]
phytotoxicity rating AMBEL ([1]; rate 63 g ai/ha): 60
phytotoxicity rating AMBEL ([1]; rate 500 g ai/ha): 100
phytotoxicity rating IPOHE ([2]; rate 63 g ai/ha): 90
phytotoxicity rating IPOHE ([2]; rate 500 g ai/ha): 100
phytotoxicity rating ABUTH ([3]; rate 63 g ai/ha): 100
phytotoxicity rating ABUTH ([3]; rate 500 g ai/ha): 100
phytotoxicity rating ECHCG ([4]; rate 63 g ai/ha): 20
phytotoxicity rating ECHCG ([4]; rate 500 g ai/ha): 40
phytotoxicity rating CHEAL ([5]; rate 63 g ai/ha): 90
phytotoxicity rating CHEAL ([5]; rate 500 g ai/ha): 100
phytotoxicity rating SETVI ([6]; rate 63 g ai/ha): 20
phytotoxicity rating SETVI ([6]; rate 500 g ai/ha): 80
phytotoxicity rating CASOB ([7]; rate 63 g ai/ha): 55
phytotoxicity rating CASOB ([7]; rate 500 g ai/ha): 95
phytotoxicity rating DIGSA ([8]; rate 63 g ai/ha): 0
phytotoxicity rating DIGSA ([8]; rate 500 g ai/ha): 50
phytotoxicity rating SORHA ([9]; rate 63 g ai/ha): 10
phytotoxicity rating SORHA ([9]; rate 500 g ai/ha): 30
phytotoxicity rating AMARE ([10]; rate 63 g ai/ha): 95
phytotoxicity rating AMARE ([10]; rate 500 g ai/ha): 100
SOY crop damage rating ([11]; Rate 125 g al/ha): 0
SOY crop damage rating ([11]; Rate 500 g al/ha): 30
crop damage rating RICE ([12]; rate 63 g ai/ha): 0
crop damage rating RICE ([12]; rate 500 g ai/ha): 10
crop damage rating CORN ([13]; rate 63 g ai/ha): 5
crop damage rating CORN ([13]; rate 500 g ai/ha): 15
crop damage rating SOY ([14]; rate 63 g ai/ha): 55
crop damage rating SOY ([14]; rate 500 g ai/ha): 70
RICE crop damage rating ([15]; Rate 500 g al/ha): 10
CORN crop damage rating ([16]; Rate 500 g al/ha): 0
IPOHE phytotoxicity rating ([17]; Rate 125 g al/ha): 0
IPOHE phytotoxicity rating ([17]; Rate 500 g al/ha): 70
ABUTH phytotoxicity rating ([18]; Rate 125 g al/ha): 100
ABUTH phytotoxicity rating ([18]; Rate 500 g al/ha): 100
ECHCG phytotoxicity rating ([19]; Rate 125 g al/ha): 0
ECHCG phytotoxicity rating ([19]; Rate 500 g al/ha): 20
CHEAL phytotoxicity rating ([20]; Rate 125 g al/ha): 100
CHEAL phytotoxicity rating ([20]; Rate 500 g al/ha): 100
AMBEL phytotoxicity rating ([21]; Rate 125 g al/ha): 0
AMBEL phytotoxicity rating ([21]; Rate 500 g al/ha): 40
SETVI phytotoxicity rating ([22]; Rate 125 g al/ha): 80
SETVI phytotoxicity rating ([22]; Rate 500 g al/ha): 100
CASOB phytotoxicity rating ([23]; Rate 125 g al/ha): 40
CASOB phytotoxicity rating ([23]; Rate 500 g al/ha): 90
DIGSA phytotoxicity rating ([24]; Rate 125 g al/ha): 10
DIGSA phytotoxicity rating ([24]; Rate 500 g al/ha): 90
SORHA phytotoxicity rating ([25]; Rate 125 g al/ha): 0
SORHA phytotoxicity rating ([25]; Rate 500 g al/ha): 40
AMARE phytotoxicity rating ([26]; Rate 125 g al/ha): 100
AMARE phytotoxicity rating ([26]; Rate 500 g al/ha): 100
